ChEMBL document CHEMBL2046380, “Synthesis and structure-activity relationship of disubstituted benzamides as a novel class of antimalarial agents” (Bioorg Med Chem Lett, 2012)

Tests used:
Plasmodium falciparum [1] = assay: Antimalarial activity against […] incubated for 72 hrs by DNA staining based MARK1 growth inhibition assay; assay type: functional, organism-based
BJ = assay: Cytotoxicity against human BJ cells after 72 hrs by […] CellTiterGlo reagent assay; assay type: cell-based
Plasmodium falciparum [2] = assay: Antimalarial activity against chloroquine-sensitive Plasmodium falciparum 3D7 incubated for 72 hrs by DNA staining based MAR3D7 growth inhibition assay; assay type: functional, organism-based; details: 3D7, 72 h
HEK293 = assay: Cytotoxicity against human HEK293 cells after 72 hrs by […] CellTiterGlo reagent assay; assay type: cell-based; details: HEK293, 72 h
HepG2 = assay: Cytotoxicity against human HepG2 cells after 72 hrs by […] CellTiterGlo reagent assay; assay type: cell-based; details: HepG2, 72 h
Raji = assay: Cytotoxicity against human Raji cells after 72 hrs by […] CellTiterGlo reagent assay; assay type: cell-based

SMILES	EC50 (Plasmodium falciparum [1]) [µM]	EC50 (BJ) [µM]	EC50 (Plasmodium falciparum [2]) [µM]	EC50 (HEK293) [µM]	EC50 (HepG2) [µM]	EC50 (Raji) [µM]
CCCN(Cc1ccccc1OCCCCCC(=O)OCC)C(=O)c1ccc(-c2ccc3c(c2)OCO3)cc1	> 15	> 26	> 15	> 26	> 26	> 26
CCOC(=O)CCCCCOc1cccc(CN(C(=O)c2ccc(-c3cccc(OCc4ccccc4)c3)cc2)C(C)C)c1	> 15	> 26	> 15	> 26	> 26	> 26
C[C@@H](NC(=O)c1ccc(-c2ccc3c(c2)OCO3)cc1)c1ccccc1	> 15	> 26	> 15	> 26	> 26	> 26
COc1cc2c(cc1OC)C(CC1(C)OCCO1)=NCC2	> 7.51	> 13	> 7.51	> 13	> 13	> 13
C=CCCC1=NCC(O[Si](C)(C)C(C)(C)C)c2cc(OC)c(OC)cc21 (stereo unspecified)	3.06	> 13	2.95	> 13	> 13	> 13
CC(C)N(Cc1cccc(OCCCCCC(=O)O)c1)C(=O)c1ccc(-c2ccc3cc[nH]c3c2)cc1	> 1.5	> 26	> 15	> 26	> 26	> 26
COc1ccc(C(=O)C(Br)N=[N+]=[N-])cc1OC (stereo unspecified)	> 7.51	> 13	> 7.51	> 13	> 13	> 13
CCOC(=O)CC(=O)NCCc1ccc(OC)c(OC)c1	> 7.51	> 13	> 7.51	> 13	> 13	> 13
COc1cc(OC)cc(-c2ccc(C(=O)N(Cc3cccc(OCCCCCC(=O)O)c3)C(C)C)cc2)c1	> 15	> 26	> 15	> 26	> 26	> 26
CC(C)N(Cc1cccc(OCCCCCC(=O)O)c1)C(=O)c1ccc(-c2cc3ccccc3n2S(=O)(=O)c2ccccc2)cc1	> 15	> 26	> 15	> 26	> 26	> 26
[N-]=[N+]=NC[C@H](O)c1ccc2c(c1)OCO2	> 7.51	> 13	> 7.51	> 13	> 13	> 13
CCOC(=O)CCCCCOc1cccc(CN(C(=O)c2ccc(-c3cn(S(=O)(=O)c4ccccc4)c4ccccc34)cc2)C(C)C)c1	> 15	> 26	> 15	> 26	> 26	> 26
CCOC(=O)CCCCCOc1cccc(CN(C(=O)c2ccc(-c3cccc(Cl)c3)cc2)C(C)C)c1	> 10.2	> 18.5	> 10.2	> 18.5	> 18.5	> 18.5
CCCNCc1ccc(OCCCCCC(=O)OCC)cc1	> 15	> 26	> 15	> 26	> 26	> 26
CC(C)N(Cc1cccc(OCCCCCC(=O)O)c1)C(=O)c1ccc(-c2cccc(Oc3ccccc3)c2)cc1	> 10.4	> 18.8	> 10.4	> 18.8	> 18.8	> 18.8
CC(C)N(Cc1cccc(OCCCCCC(=O)O)c1)C(=O)c1ccc(-c2ccncc2)cc1	0.52	> 26	0.567	> 26	> 26	> 26
CC(C)N(Cc1cccc(OCCCCCC(=O)O)c1)C(=O)c1ccccc1	0.0074	> 26	> 15	> 26	> 26	> 26
CCOC(=O)CCCCCOc1cccc(CN(C(=O)c2ccc(-c3cccc(CC(=O)O)c3)cc2)C(C)C)c1	> 15	> 26	> 15	> 26	> 26	> 26
CCOC(=O)CCCCCOc1cccc(CN(C(=O)c2ccc(-c3cccc(C(F)(F)F)c3)cc2)C(C)C)c1	> 15	–	> 15	> 26	> 26	> 26
CC(=O)c1cccc(-c2ccc(C(=O)N(Cc3cccc(OCCCCCC(=O)O)c3)C(C)C)cc2)c1	> 15	> 26	< 0.0004	> 26	> 26	> 26
CCOC(=O)CCCCCOc1ccc(CN(C(=O)c2ccc(-c3ccc4c(c3)OCO4)cc2)C(C)C)cc1	> 15	> 26	> 15	> 26	> 26	> 26
CC(C)N(Cc1cccc(OCCCCCC(=O)O)c1)C(=O)c1ccc(-c2cccc(C(F)(F)F)c2)cc1	> 15	> 26	> 15	> 26	> 26	> 26

SMILES	EC50 (Plasmodium falciparum [1]) [µM]	EC50 (BJ) [µM]	EC50 (Plasmodium falciparum [2]) [µM]	EC50 (HEK293) [µM]	EC50 (HepG2) [µM]	EC50 (Raji) [µM]
COc1cc2c(cc1OC)C1(CC=CCC1)N(C(C)=O)CC2 (stereo unspecified)	> 7.51	> 13	> 7.51	> 13	> 13	> 13
CCOC(=O)CCCCCOc1ccccc1CNC(C)C	> 15	> 26	> 15	> 26	> 26	> 26
CCOC(=O)CCCCCOc1ccc(CNC(C)C)cc1	> 15	> 26	> 15	> 26	> 26	> 26
COc1cc2c(cc1OC)C(C)=NCC2	> 7.51	> 13	> 7.51	> 13	> 13	> 13
CCOC(=O)CCCCCOc1cccc(CN(C(=O)c2ccc(-c3cccc(Oc4ccccc4)c3)cc2)C(C)C)c1	> 10.9	> 19.7	> 10.9	> 19.7	> 26	> 19.7
CC(C)N(Cc1cccc(OCCCCCC(=O)O)c1)C(=O)c1ccc(-c2cccc(-c3ccccc3)c2)cc1	> 15	> 26	> 15	> 26	> 26	> 26
CC(C)N(Cc1cccc(OCCCCCC(=O)O)c1)C(=O)c1ccc(-c2cccc(Cl)c2)cc1	> 12.1	> 21.9	> 12.1	> 21.9	> 21.9	> 21.9
CCOC(=O)CCCCCOc1cccc(CN(C(=O)c2ccc(-c3cccc(N(C)C)c3)cc2)C(C)C)c1	> 15	> 26	> 15	> 26	> 26	> 26
CC(C)N(Cc1cccc(OCCCCCC(=O)O)c1)C(=O)c1ccc(-c2cccc3ccccc23)cc1	> 15	–	> 15	> 26	> 26	> 26
CCCN(Cc1ccc(OCCCCCC(=O)OCC)cc1)C(=O)c1ccc(Br)cc1	> 15	> 26	> 15	> 26	> 26	> 26
CCOC(=O)/C=C1\NCCc2cc3c(cc21)OCO3	> 7.51	> 13	> 7.51	> 13	> 13	> 13
CCOC(OCC)C1=NCCc2cc(OC)c(OC)cc21	> 7.51	> 13	> 7.51	> 13	> 13	> 13
CC(C)N(C(=O)c1ccc(-c2ccc3c(c2)OCO3)cc1)[C@H](C)c1ccccc1	> 15	> 26	> 15	> 26	> 26	> 26
CC(C)N(Cc1ccccc1OCCCCCC(=O)O)C(=O)c1ccc(-c2ccc3c(c2)OCO3)cc1	> 15	> 26	> 15	> 26	> 26	> 26
CCOc1cccc(-c2ccc(C(=O)N(Cc3cccc(OCCCCCC(=O)O)c3)C(C)C)cc2)c1	> 11.5	> 20.9	> 11.5	> 20.9	> 20.9	> 20.9
CC(C)N(Cc1cccc(OCCCCCC(=O)O)c1)C(=O)c1ccc(-c2cccc(O)c2)cc1	> 15	> 26	> 15	> 26	> 26	> 26
CCOC(=O)CCCCCOc1cccc(CN(C(=O)c2ccc(-c3ccc4ccccc4c3)cc2)C(C)C)c1	> 15	> 26	> 15	> 26	> 26	> 26
CCOC(=O)CCCCCOc1cccc(CNC(C)C)c1	> 15	> 26	> 15	> 26	> 26	> 26
COc1ccc(-c2cc(C(=O)O)c3ccccc3n2)cc1OC	> 15	> 26	> 15	> 26	> 26	> 26
CCOC(=O)CCCCCOc1ccc(C=O)cc1	> 15	> 26	0.0584	> 26	> 26	> 26
CC(C)COc1cccc(-c2ccc(C(=O)N(Cc3cccc(OCCCCCC(=O)O)c3)C(C)C)cc2)c1	> 15	> 26	> 15	> 26	> 26	> 26
CCOC(=O)CCCCCOc1cccc(CN(C(=O)c2ccc(-c3cccc([N+](=O)[O-])c3)cc2)C(C)C)c1	> 15	–	> 15	> 26	> 26	> 26
